Measured values taken from patent publication US9090667B2, “Cyclic peptide from Nonomuraea sp., process for the production thereof, and pharmaceutical composition for the prevention or treatment of mycobacteria related disease comprising the same” (priority 2011, dated 2015).
≈ marks a conversion by molar mass, not a printed value. Numbered stars: 1 amine (or outer) side, 2 acyl side, 3 side chain; on linkers, the order of the positions; unused ones are H or OH. Bridge positions count the residues as written; N and C are the ends. Square brackets hold non-standard residues; d marks the D form. Peptide text beside a SMILES is read from it. * marks the point of attachment. ξ: configuration not given here. NMeTrp(4-OMe) = CN[CH](Cc1c[nH]c2cccc(OC)c12)C(=O)O; X1 = O=C(C(N[*:1])C(O)c1ccccc1)[*:2]; NMeI = CC[CH](C)[CH](NC)C(=O)O; ξNMe2Val = CC(C)C(C(=O)*)N(C)C; NMeT = CN[CH](C(=O)O)[CH](C)O; NMeL = CN[CH](CC(C)C)C(=O)O; NMeV = CN[CH](C(=O)O)C(C)C

Legend:
[1] = test system: M. tuberculosis strain resistant to rifampin (RMP)
[2] = test system: M. tuberculosis strain resistant to isoniazid (INH)
[3] = test system: M. tuberculosis strain resistant to moxifloxacin (Mox)
[4] = test system: M. tuberculosis strain resistant to streptomycin (SM)
[5] = test system: M. tuberculosis strain resistant to kanamycin (KM)
[6] = test system: M. tuberculosis strain resistant to cycloserine (CS)
[7] = test system: M. tuberculosis strain resistant to capreomycin (CAP)

Compound	MIC [1] [µM]	MIC [2] [µM]	MIC [3] [µM]	MIC [4] [µM]	MIC [5] [µM]	MIC [6] [µM]	MIC [7] [µM]
CCC(C)C(C(=O)NC1C(=O)N(C)C(C(C)O)C(=O)NC(C(C)C)C(=O)N(C)C(CC(C)C)C(=O)NC(C(C)C)C(=O)N(C)C(C(C)C)C(=O)N(C)C(Cc2c[nH]c3cccc(OC)c23)C(=O)NC(C(C)C)C(=O)NC(C(O)c2ccccc2)C(=O)NC(C(C)C)C(=O)OC1C)N(C)C(=O)C(NC(=O)C(C(C)C)N(C)C)C(C)C (centres unmarked) [H-14] (ξNMe2Val-V[NMeI]T[NMeT]V[NMeL]V[NMeV][NMeTrp(4-OMe)]V[X1]V; ester 3-C; configuration not given here)	0.19 (≈ 0.304 µg/mL)	<0.12	0.31 (≈ 0.496 µg/mL)	<0.12	<0.12	<0.12	0.29 (≈ 0.464 µg/mL)
CCC(C)C(C(=O)NC1C(=O)N(C)C(C(C)O)C(=O)NC(C(C)C)C(=O)N(C)C(CC(C)C)C(=O)NC(C(C)C)C(=O)N(C)C(C(C)C)C(=O)N(C)C(Cc2c[nH]c3cccc(OC)c23)C(=O)NC(C(C)C)C(=O)NC(Cc2ccccc2)C(=O)NC(C(C)C)C(=O)OC1C)N(C)C(=O)C(NC(=O)C(C(C)C)N(C)C)C(C)C (centres unmarked) [H-16] (ξNMe2Val-V[NMeI]T[NMeT]V[NMeL]V[NMeV][NMeTrp(4-OMe)]VFV; ester 3-C; configuration not given here)	0.18 (≈ 0.285 µg/mL)	<0.12	0.3 (≈ 0.475 µg/mL)	<0.12	<0.12	<0.12	0.3 (≈ 0.475 µg/mL)
